In one experiment the test system is σ2R. The experiment can be described thus: Ex vivo competitive radioligand binding assay for σ2R, [3H]-DTG. On the set-up: species or system Dunkin Hartley guinea pig. The settings on record: selectivity ratio, guinea pig brain membranes. The method, then:
The ex vivo binding affinities of σRs of CNY‐01 and CNY‐02 were measured using a competitive radioligand binding assay.^[ [35] ^]
The following specific radioligands and tissue sources were used: (a) σ 1R, [^3H] (+)‐pentazocine, Dunkin Hartley guinea pig brain membranes; (b) σ 2R, [^3H]‐DTG, Dunkin Hartley guinea pig brain membranes. […] For σ 2R binding study, the membrane suspension was incubated with [^3H]‐DTG (3 nM), different concentration test compounds, within 400 nM (+)‐SKF10047 to block σ 1R. Nonspecific binding was conducted in both binding assays under similar conditions, adding […] haloperidol. After incubation, the mixture was rapidly filtrated through Whatman GF/B glass filters, washed twice and transferred to scintillation vials, and the radioactivity bound was measured by a Beckman LS 6500 liquid scintillation counter. Inhibition constants (Ki) were calculated based on the Cheng and Prusoff equation after the IC50 values were obtained.

For another experiment, the target named is T1, MOR (Homo sapiens, UniProt P35372).
T1 construct: purchased NIMH Psychoactive Drug Screening Program (PDSP)
T1 sequence (P35372 whole entry): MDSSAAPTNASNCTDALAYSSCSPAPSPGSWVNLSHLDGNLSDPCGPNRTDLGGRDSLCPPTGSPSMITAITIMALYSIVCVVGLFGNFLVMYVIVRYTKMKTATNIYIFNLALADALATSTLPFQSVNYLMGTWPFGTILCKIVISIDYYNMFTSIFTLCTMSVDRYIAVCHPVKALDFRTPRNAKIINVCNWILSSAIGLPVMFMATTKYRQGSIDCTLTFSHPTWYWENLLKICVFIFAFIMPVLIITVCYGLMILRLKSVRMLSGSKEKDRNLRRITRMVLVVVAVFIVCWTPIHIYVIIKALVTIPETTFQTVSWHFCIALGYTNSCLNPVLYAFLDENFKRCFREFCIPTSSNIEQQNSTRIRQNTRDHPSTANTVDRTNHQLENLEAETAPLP
Put plainly: PDSP radioligand assay. Type of experiment: binding.

In the next experiment the target is NET (Homo sapiens, UniProt P23975). Put plainly: PDSP radioligand assay. Type of experiment: binding.
Sequence of NET (P23975 whole entry): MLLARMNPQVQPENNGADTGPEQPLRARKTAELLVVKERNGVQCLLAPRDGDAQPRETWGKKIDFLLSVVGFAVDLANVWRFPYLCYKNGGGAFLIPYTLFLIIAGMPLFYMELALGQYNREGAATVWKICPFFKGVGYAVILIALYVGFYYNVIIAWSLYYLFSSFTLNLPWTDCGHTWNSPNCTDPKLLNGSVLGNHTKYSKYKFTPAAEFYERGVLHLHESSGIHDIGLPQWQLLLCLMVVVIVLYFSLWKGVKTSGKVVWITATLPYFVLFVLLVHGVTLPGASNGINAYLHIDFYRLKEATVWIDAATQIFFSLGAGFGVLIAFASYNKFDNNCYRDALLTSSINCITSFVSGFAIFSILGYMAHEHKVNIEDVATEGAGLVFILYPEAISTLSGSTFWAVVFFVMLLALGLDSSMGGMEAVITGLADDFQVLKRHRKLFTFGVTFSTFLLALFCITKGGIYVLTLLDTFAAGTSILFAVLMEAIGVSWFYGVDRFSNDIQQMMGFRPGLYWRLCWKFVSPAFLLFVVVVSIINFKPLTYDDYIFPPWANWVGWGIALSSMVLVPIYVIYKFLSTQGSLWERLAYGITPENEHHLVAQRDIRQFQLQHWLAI
Another experiment has as its target T2, SERT (Homo sapiens, UniProt P31645).
T2 construct: purchased NIMH Psychoactive Drug Screening Program (PDSP)
The experiment can be described thus: PDSP radioligand assay. The class given is binding.

A further experiment concerns the target T3, σ1R (Mus musculus, UniProt O55242).
T3 construct: The PET/CT studies in mice followed previously reported procedures; from tissue; host or cells: mouse brain in vivo (C57BL/6 wild type; 5xFAD transgenic)
Put plainly: PET/CT imaging in 5xFAD transgenic and WT mice. Type of experiment: in vivo, 5xFAD mice. As to conditions: 6-month-old male mice, PET/CT 30–60 min. An excerpt: Numerous studies have shown that σ 1R is abnormally expressed in the AD brain, and targeting σ 1R becomes a promising strategy for diagnosis and treatment of AD.^[ [11], [49] ^] To evaluate the diagnostic potential of [^11C]CNY‐01 for AD and its potential application in studying the relationship between the σ 1R and AD pathology, we conducted PET imaging studies on 5xFAD transgenic mice model and the corresponding wild‐type (WT) mice. […] Of particular note, brain regions with relatively high σ 1R expression observed higher reduction of radioactivity uptake, such as the striatum, hippocampus, and cerebellum, indicating a decrease in σ 1R expression in the brain under AD pathological conditions, consistent with previous reports (Figure 5B).^[ [11], [49], [50] ^]
Figure 5 PET/CT imaging studies of [^11C]CNY‐01 in WT and 5xFAD mouse model. A) Representative PET/CT images (30–60 min) focused on the WT and 5xFAD mice brain. (n = 4). […] Data were presented as mean ± standard error of the mean (SEM). Quantification of results was performed using Student's t‐test (****p < 0.0001, ***p < 0.001, **p < 0.01, […]).
The PET/CT studies in mice followed previously reported procedures with minor modifications.^[ [53], [54] ^] […] Reconstructed images were exported from the scanner in DICOM format and were analyzed using PMOD (PMOD 4.01).

pKi: −log10 of the molar value.

In general, inhibition refers to the change of the read-out against control, counted positive when it falls. The pKi is the Ki on a negative log10 scale, so that one unit is a factor of ten. A low value points to a large Ki.

T2 sequence (P31645 whole entry): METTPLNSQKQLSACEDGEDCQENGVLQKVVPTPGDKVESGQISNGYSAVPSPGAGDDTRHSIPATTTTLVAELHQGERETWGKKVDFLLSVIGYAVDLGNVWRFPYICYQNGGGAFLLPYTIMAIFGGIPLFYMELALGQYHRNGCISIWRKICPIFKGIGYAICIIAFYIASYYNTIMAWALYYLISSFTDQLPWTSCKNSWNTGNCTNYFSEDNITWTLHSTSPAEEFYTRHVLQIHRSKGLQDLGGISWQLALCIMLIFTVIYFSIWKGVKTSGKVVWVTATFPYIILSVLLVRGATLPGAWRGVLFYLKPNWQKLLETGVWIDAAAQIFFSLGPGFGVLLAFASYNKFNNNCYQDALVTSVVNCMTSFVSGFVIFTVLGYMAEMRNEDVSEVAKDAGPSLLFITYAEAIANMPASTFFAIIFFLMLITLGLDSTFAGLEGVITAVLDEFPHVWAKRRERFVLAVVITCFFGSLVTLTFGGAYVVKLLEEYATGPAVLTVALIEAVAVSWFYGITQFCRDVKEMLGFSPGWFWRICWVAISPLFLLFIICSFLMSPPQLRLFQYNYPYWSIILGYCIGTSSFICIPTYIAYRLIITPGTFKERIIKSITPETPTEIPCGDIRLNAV
T3 sequence (O55242 whole entry): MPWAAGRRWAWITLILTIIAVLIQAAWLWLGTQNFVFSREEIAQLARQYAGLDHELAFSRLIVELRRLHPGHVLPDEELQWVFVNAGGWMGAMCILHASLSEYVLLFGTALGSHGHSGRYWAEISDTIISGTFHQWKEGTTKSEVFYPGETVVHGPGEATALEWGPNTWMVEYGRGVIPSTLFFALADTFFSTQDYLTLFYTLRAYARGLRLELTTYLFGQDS

In the case of `COc1ccc(-c2nc(C)c(Cl)c(OCCCN3CCCCC3)n2)cc1` [CNY-01, 5‐chloro‐2‐(4‐methoxyphenyl)‐4‐methyl‐6‐(3‐(piperidin‐1‐yl)propoxy)pyrimidine], in the experiment with σ2R, the σ2R/σ1R was determined as 322. Besides, the inhibition at 10 µM at MOR was -16.4%; on NET it was 50.4%; at SERT, 21.8%. Further, the negative logarithm of the Ki (pKi) at NET is 5.68.

In the case of `Cc1nc(-c2ccc(Cl)cc2)nc(OCCCN2CCN(C)CC2)c1Cl` [CNY-02, 5‐chloro‐2‐(4‐chlorophenyl)‐4‐methyl‐6‐(3‐(4‐methylpiperazin‐1‐yl)propoxy)pyrimidine], the σ2R/σ1R with σ2R was found to be 627. The inhibition at 10 µM on MOR was -14.4%; on NET it was 0.14%; at SERT, 43%.

On to `Cc1nc(-c2ccc(O[11CH3])cc2)nc(OCCCN2CCCCC2)c1Cl` [[^11C]CNY-01], for which the “brain uptake in 5xFAD mice compared to WT mice” value on σ1R was “significantly lower uptake”.
